Measurements taken from the supplement of paper PMC8612539.
Converted amounts (≈) assume the structure as drawn.

Test system: Pasteurella multocida
Assay: minimum inhibitory concentration (MIC)
Protocol: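 Broth microdilution MIC (Sensititre BOPO7F bovine plate, CLSI methods) of 19 antimicrobials against field isolates of P. multocida, M. haemolytica, H. somni (deep nasopharyngeal swabs) and E. coli, Enterococcus spp. (rectal swabs) from weaned dairy heifers. Incubation 16-24 h at 35 C. MIC is the lowest concentration preventing visible growth. Values with <= or > lie at the tested range limits. Trimethoprim-sulfamethoxazole is given as the trimethoprim component of a 1:19 mixture.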

CC[C@H]1OC(=O)C[C@@H](O)[C@H](C)[C@@H](O[C@@H]2O[C@H](C)[C@@H](O)[C@H](N(C)C)[C@H]2O)[C@@H](CCN2C[C@H](C)C[C@H](C)C2)C[C@@H](C)C(=O)/C=C/C(C)=C/[C@@H]1CO[C@@H]1O[C@H](C)[C@@H](O)[C@@H](OC)[C@H]1OC [Tilmicosin]
Details	minimum inhibitory concentration [µg/mL]
isolate (source animal id): 10	> 16
isolate (source animal id): 11	> 16
isolate (source animal id): 12	> 16
isolate (source animal id): 19	> 16
isolate (source animal id): 23	> 16
isolate (source animal id): 26	> 16
isolate (source animal id): 98	> 16
isolate (source animal id): 104	> 16
isolate (source animal id): 115	> 16
isolate (source animal id): 117	> 16
isolate (source animal id): 118	> 16
isolate (source animal id): 121	> 16
isolate (source animal id): 124	> 16
isolate (source animal id): 125	> 16
isolate (source animal id): 128	> 16
isolate (source animal id): 131	> 16
isolate (source animal id): 135	> 16
isolate (source animal id): 136	> 16
isolate (source animal id): 140	> 16
isolate (source animal id): 144	> 16
isolate (source animal id): 146	> 16
isolate (source animal id): 150	> 16
isolate (source animal id): 151	> 16
isolate (source animal id): 153	> 16
isolate (source animal id): 155	> 16
isolate (source animal id): 157	16 (≈ 18.4 µM)
isolate (source animal id): 160	> 16
isolate (source animal id): 164	> 16
isolate (source animal id): 165	> 16
isolate (source animal id): 167	8 (≈ 9.2 µM)
isolate (source animal id): 168	> 16
isolate (source animal id): 169	4 (≈ 4.6 µM)
isolate (source animal id): 170	16 (≈ 18.4 µM)
isolate (source animal id): 171	8 (≈ 9.2 µM)
isolate (source animal id): 172	8 (≈ 9.2 µM)
isolate (source animal id): 173	> 16
isolate (source animal id): 174	8 (≈ 9.2 µM)
isolate (source animal id): 175	8 (≈ 9.2 µM)
isolate (source animal id): 176	8 (≈ 9.2 µM)
isolate (source animal id): 177	8 (≈ 9.2 µM)
isolate (source animal id): 178	4 (≈ 4.6 µM)
isolate (source animal id): 179	4 (≈ 4.6 µM)
isolate (source animal id): 182	16 (≈ 18.4 µM)
isolate (source animal id): 192	4 (≈ 4.6 µM)
isolate (source animal id): 193	8 (≈ 9.2 µM)
isolate (source animal id): 195	8 (≈ 9.2 µM)
isolate (source animal id): 196	8 (≈ 9.2 µM)
isolate (source animal id): 197	16 (≈ 18.4 µM)
isolate (source animal id): 198	> 16
isolate (source animal id): 199	8 (≈ 9.2 µM)
isolate (source animal id): 200	4 (≈ 4.6 µM)
isolate (source animal id): 201	8 (≈ 9.2 µM)
isolate (source animal id): 203	4 (≈ 4.6 µM)
isolate (source animal id): 204	8 (≈ 9.2 µM)
isolate (source animal id): 205	> 16
isolate (source animal id): 206	8 (≈ 9.2 µM)
isolate (source animal id): 207	8 (≈ 9.2 µM)
isolate (source animal id): 208	4 (≈ 4.6 µM)
isolate (source animal id): 209	4 (≈ 4.6 µM)
isolate (source animal id): 210	> 16
isolate (source animal id): 213	8 (≈ 9.2 µM)
isolate (source animal id): 216	8 (≈ 9.2 µM)
isolate (source animal id): 223	> 16
isolate (source animal id): 227	4 (≈ 4.6 µM)
isolate (source animal id): 229	> 16
isolate (source animal id): 233	> 16
isolate (source animal id): 234	> 16
isolate (source animal id): 237	> 16
isolate (source animal id): 241	> 16
isolate (source animal id): 245	> 16
isolate (source animal id): 247	> 16
isolate (source animal id): 250	> 16
isolate (source animal id): 254	> 16
isolate (source animal id): 255	> 16
isolate (source animal id): 258	8 (≈ 9.2 µM)
isolate (source animal id): 261	> 16
isolate (source animal id): 262	> 16
isolate (source animal id): 269	8 (≈ 9.2 µM)
isolate (source animal id): 270	> 16
isolate (source animal id): 274	> 16
isolate (source animal id): 275	> 16
isolate (source animal id): 276	> 16
isolate (source animal id): 277	8 (≈ 9.2 µM)
isolate (source animal id): 278	> 16
isolate (source animal id): 279	> 16
isolate (source animal id): 280	> 16
isolate (source animal id): 284	> 16
isolate (source animal id): 285	> 16
isolate (source animal id): 287	> 16
isolate (source animal id): 290	> 16
isolate (source animal id): 294	> 16
isolate (source animal id): 295	> 16
isolate (source animal id): 296	> 16
isolate (source animal id): 307	> 16
isolate (source animal id): 310	> 16
isolate (source animal id): 311	> 16
isolate (source animal id): 312	> 16
isolate (source animal id): 313	> 16
isolate (source animal id): 315	> 16
isolate (source animal id): 316	> 16

CCCNC[C@]1(O)[C@H](C)O[C@@H](O[C@H]2[C@H](C)[C@@H](O[C@@H]3O[C@H](C)C[C@H](N(C)C)[C@H]3O)[C@](C)(O)C[C@@H](C)CN[C@H](C)[C@@H](O)[C@](C)(O)[C@@H](CC)OC(=O)[C@@H]2C)C[C@@]1(C)OC [Tulathromycin]
Details	minimum inhibitory concentration [µg/mL]
isolate (source animal id): 10	≤ 8
isolate (source animal id): 11	32 (≈ 39.7 µM)
isolate (source animal id): 12	32 (≈ 39.7 µM)
isolate (source animal id): 19	32 (≈ 39.7 µM)
isolate (source animal id): 23	16 (≈ 19.8 µM)
isolate (source animal id): 26	≤ 8
isolate (source animal id): 98	≤ 8
isolate (source animal id): 104	> 64
isolate (source animal id): 115	32 (≈ 39.7 µM)
isolate (source animal id): 117	≤ 8
isolate (source animal id): 118	16 (≈ 19.8 µM)
isolate (source animal id): 121	32 (≈ 39.7 µM)
isolate (source animal id): 124	≤ 8
isolate (source animal id): 125	≤ 8
isolate (source animal id): 128	32 (≈ 39.7 µM)
isolate (source animal id): 131	> 64
isolate (source animal id): 135	> 64
isolate (source animal id): 136	32 (≈ 39.7 µM)
isolate (source animal id): 140	16 (≈ 19.8 µM)
isolate (source animal id): 144	16 (≈ 19.8 µM)
isolate (source animal id): 146	16 (≈ 19.8 µM)
isolate (source animal id): 150	64 (≈ 79.4 µM)
isolate (source animal id): 151	64 (≈ 79.4 µM)
isolate (source animal id): 153	16 (≈ 19.8 µM)
isolate (source animal id): 155	≤ 8
isolate (source animal id): 157	≤ 8
isolate (source animal id): 160	64 (≈ 79.4 µM)
isolate (source animal id): 164	64 (≈ 79.4 µM)
isolate (source animal id): 165	64 (≈ 79.4 µM)
isolate (source animal id): 167	≤ 8
isolate (source animal id): 168	≤ 8
isolate (source animal id): 169	≤ 8
isolate (source animal id): 170	≤ 8
isolate (source animal id): 171	≤ 8
isolate (source animal id): 172	≤ 8
isolate (source animal id): 173	16 (≈ 19.8 µM)
isolate (source animal id): 174	≤ 8
isolate (source animal id): 175	≤ 8
isolate (source animal id): 176	≤ 8
isolate (source animal id): 177	≤ 8
isolate (source animal id): 178	≤ 8
isolate (source animal id): 179	≤ 8
isolate (source animal id): 182	≤ 8
isolate (source animal id): 192	≤ 8
isolate (source animal id): 193	≤ 8
isolate (source animal id): 195	≤ 8
isolate (source animal id): 196	≤ 8
isolate (source animal id): 197	≤ 8
isolate (source animal id): 198	16 (≈ 19.8 µM)
isolate (source animal id): 199	≤ 8
isolate (source animal id): 200	≤ 8
isolate (source animal id): 201	≤ 8
isolate (source animal id): 203	≤ 8
isolate (source animal id): 204	≤ 8
isolate (source animal id): 205	16 (≈ 19.8 µM)
isolate (source animal id): 206	≤ 8
isolate (source animal id): 207	≤ 8
isolate (source animal id): 208	≤ 8
isolate (source animal id): 209	≤ 8
isolate (source animal id): 210	16 (≈ 19.8 µM)
isolate (source animal id): 213	≤ 8
isolate (source animal id): 216	≤ 8
isolate (source animal id): 223	16 (≈ 19.8 µM)
isolate (source animal id): 227	≤ 8
isolate (source animal id): 229	≤ 8
isolate (source animal id): 233	≤ 8
isolate (source animal id): 234	≤ 8
isolate (source animal id): 237	16 (≈ 19.8 µM)
isolate (source animal id): 241	16 (≈ 19.8 µM)
isolate (source animal id): 245	≤ 8
isolate (source animal id): 247	16 (≈ 19.8 µM)
isolate (source animal id): 250	≤ 8
isolate (source animal id): 254	32 (≈ 39.7 µM)
isolate (source animal id): 255	16 (≈ 19.8 µM)
isolate (source animal id): 258	≤ 8
isolate (source animal id): 261	≤ 8
isolate (source animal id): 262	16 (≈ 19.8 µM)
isolate (source animal id): 269	≤ 8
isolate (source animal id): 270	≤ 8
isolate (source animal id): 274	≤ 8
isolate (source animal id): 275	≤ 8
isolate (source animal id): 276	16 (≈ 19.8 µM)
isolate (source animal id): 277	≤ 8
isolate (source animal id): 278	≤ 8
isolate (source animal id): 279	≤ 8
isolate (source animal id): 280	> 64
isolate (source animal id): 284	≤ 8
isolate (source animal id): 285	16 (≈ 19.8 µM)
isolate (source animal id): 287	16 (≈ 19.8 µM)
isolate (source animal id): 290	≤ 8
isolate (source animal id): 294	≤ 8
isolate (source animal id): 295	16 (≈ 19.8 µM)
isolate (source animal id): 296	≤ 8
isolate (source animal id): 307	≤ 8
isolate (source animal id): 310	16 (≈ 19.8 µM)
isolate (source animal id): 311	16 (≈ 19.8 µM)
isolate (source animal id): 312	≤ 8
isolate (source animal id): 313	16 (≈ 19.8 µM)
isolate (source animal id): 315	16 (≈ 19.8 µM)
isolate (source animal id): 316	16 (≈ 19.8 µM)
